Measurements reported in paper PMC12304827 (British Journal of Clinical Pharmacology, 2025).
Like-named read-outs stand apart in the source and are kept apart here.

Legend:
CYP1A2 [1] = settings: cited from earlier work
[2] = OC study 2: EE and LN PK with/without ritlecitinib 50 mg QD; type: in vivo, human; settings: for AUC(0-inf) / AUC(0-t) / Cmax: female, human, plasma, oral; for Cmax: adjusted geometric mean (test), 1 Portia tablet on Day 10 of ritlecitinib 50 mg QD × 13 days, healthy females
[3] = OC study 1: EE and LN PK with/without ritlecitinib 200 mg QD; type: in vivo, human; settings: for AUC(0-inf) / Cmax / AUC(0-t): female, human, plasma, oral, healthy females; for AUC(0-inf): AUCinf; for AUC(0-t): AUClast
CYP2B6 = biological target: T1, CYP2B6 (Homo sapiens, UniProt P20813); settings: for Effect of ritlecitinib on efavirenz AUC0–72 and Cmax (in words): ritlecitinib 200 mg QD
T1 sequence (P20813 1-491): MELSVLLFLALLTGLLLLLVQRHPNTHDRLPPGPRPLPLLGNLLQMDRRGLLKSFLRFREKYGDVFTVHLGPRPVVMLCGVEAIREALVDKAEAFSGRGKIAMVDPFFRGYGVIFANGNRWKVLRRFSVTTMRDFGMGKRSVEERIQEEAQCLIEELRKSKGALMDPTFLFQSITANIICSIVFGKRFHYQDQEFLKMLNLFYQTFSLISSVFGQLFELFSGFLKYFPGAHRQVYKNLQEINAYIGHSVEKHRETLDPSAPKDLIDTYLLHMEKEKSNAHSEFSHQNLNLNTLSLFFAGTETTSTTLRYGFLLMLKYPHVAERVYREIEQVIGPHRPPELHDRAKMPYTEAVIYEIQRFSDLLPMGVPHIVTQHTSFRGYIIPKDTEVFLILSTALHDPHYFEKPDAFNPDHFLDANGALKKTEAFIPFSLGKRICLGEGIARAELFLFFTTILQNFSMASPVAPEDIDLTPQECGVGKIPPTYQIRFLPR

CYP3A [4] = test: Midazolam and efavirenz DDI study: midazolam PK with/without ritlecitinib
[5] = cited from earlier work
[6] = cited from earlier work; remark: listed apart in the source
CYP3A4/5 = test: CYP time-dependent inhibition in human liver microsomes; type: in vitro ADME
CYP1A2 [7] = test: Caffeine DDI study: caffeine PK with/without ritlecitinib; type: in vivo, human; settings: from caffeine DDI at ritlecitinib 200 mg QD
CYP3A [8] = test: Itraconazole DDI study: ritlecitinib PK with/without itraconazole; type: in vivo, human
CYP1A2 [9] = biological target: T2, CYP1A2 (Homo sapiens, UniProt P05177); test: CYP time-dependent inhibition in human liver microsomes; type: in vitro ADME
T2 sequence (P05177 1-516): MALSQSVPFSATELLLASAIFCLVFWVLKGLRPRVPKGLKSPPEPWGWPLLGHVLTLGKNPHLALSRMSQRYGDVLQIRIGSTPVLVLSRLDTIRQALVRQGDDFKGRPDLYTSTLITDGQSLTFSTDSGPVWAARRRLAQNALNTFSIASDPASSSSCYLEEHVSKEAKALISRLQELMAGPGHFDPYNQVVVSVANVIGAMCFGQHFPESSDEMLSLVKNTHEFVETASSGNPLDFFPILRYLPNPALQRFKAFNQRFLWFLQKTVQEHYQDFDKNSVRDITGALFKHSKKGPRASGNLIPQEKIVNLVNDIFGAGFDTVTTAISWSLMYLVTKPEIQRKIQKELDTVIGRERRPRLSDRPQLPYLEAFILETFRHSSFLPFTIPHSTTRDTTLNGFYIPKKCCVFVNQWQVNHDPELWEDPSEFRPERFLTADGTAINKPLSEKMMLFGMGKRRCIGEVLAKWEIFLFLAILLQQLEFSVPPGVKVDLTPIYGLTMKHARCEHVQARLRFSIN

[10] = system: organic cation transporter 1 (OCT1); settings: cited from earlier work
CYP = test: Rifampicin DDI study: ritlecitinib PK with/without rifampicin; type: in vivo, human
[11] = caffeine single dose with ritlecitinib 200 mg QD × 9 days, plasma
[12] = caffeine with ritlecitinib 200 mg QD × 9 days vs alone
[13] = caffeine with ritlecitinib 200 mg QD × 9 days vs alone, listed as caffeine
[14] = adjusted geometric mean (reference), 1 Portia tablet (EE 30 μg and LN 150 μg) alone
[15] = adjusted geometric mean (test), 1 Portia tablet (EE 30 μg and LN 150 μg) on Day 10 of ritlecitinib 200 mg QD × 11 days
[16] = multiple ritlecitinib 200 mg QD doses
[17] = efavirenz with ritlecitinib 200 mg QD × 11 days vs without
[18] = efavirenz with ritlecitinib 200 mg QD × 11 days vs without, listed as efavirenz
[19] = midazolam with ritlecitinib 200 mg QD × 11 days vs without
[20] = midazolam with ritlecitinib 200 mg QD × 11 days vs without, listed as midazolam
[21] = multiple 200-mg doses of itraconazole, ritlecitinib 30 mg
[22] = ritlecitinib 30 mg with itraconazole 200 mg QD × 5 days vs alone
[23] = ritlecitinib 50 mg with rifampicin 600 mg QD × 8 days vs alone
[24] = ritlecitinib 50 mg with rifampicin 600 mg QD × 8 days vs alone, listed as ritlecitinib

Cn1c(=O)c2c(ncn2C)n(C)c1=O [Caffeine, caffeine]
AUCinf, adjusted geometric mean (reference) (CYP1A2 [1]; caffeine alone, plasma): 15 660 ng h/mL
AUClast, adjusted geometric mean (reference) (CYP1A2 [1]; caffeine alone, plasma): 14 780 ng h/mL
Cmax, adjusted geometric mean (reference) (CYP1A2 [1]; caffeine alone, plasma): 2162 ng/mL
AUCinf, adjusted geometric mean (test) (CYP1A2 [1]; [11]): 41 530 ng h/mL
AUClast, adjusted geometric mean (test) (CYP1A2 [1]; [11]): 38 580 ng h/mL
Cmax, adjusted geometric mean (test) (CYP1A2 [1]; [11]): 2372 ng/mL
AUClast, ratio (test/reference) of adjusted geometric means (90% CI) (CYP1A2 [1]; [12]): 261.0 (232.5−293.1) %
Cmax, ratio (test/reference) of adjusted geometric means (90% CI) (CYP1A2 [1]; [12]): 109.7 (103.9−115.9) %
AUCinf, ratio (test/reference) of adjusted geometric means (90% CI) (CYP1A2 [1]; [13]): 265.1%
Cmax, ratio (test/reference) of adjusted geometric means (90% CI) (CYP1A2 [1]; [13]): 109.7%
Fold increase of caffeine AUCinf by ritlecitinib (CYP1A2 [1]; ritlecitinib 200 mg QD): ≈ 2.7 fold
Fold increase of caffeine Cmax by ritlecitinib (CYP1A2 [1]; ritlecitinib 200 mg QD): ~1.1 fold
Increase of caffeine AUCinf in the presence of ritlecitinib (CYP1A2 [1]; ritlecitinib 200 mg QD): ≈ 165%
Increase of caffeine Cmax in the presence of ritlecitinib (CYP1A2 [1]; ritlecitinib 200 mg QD): ≈ 10%

C#C[C@]1(O)CC[C@H]2[C@@H]3CCc4cc(O)ccc4[C@H]3CC[C@@]21C [EE, ethinyl oestradiol]
AUC(0-inf) ([2]; 50 mg): 0.733 ng·h/mL
AUC(0-t) ([2]; 50 mg): 0.605 ng·h/mL
Cmax ([2]; 50 mg): 0.0638 ng/mL
AUC(0-inf) ([2]; 1 Portia tablet): 0.747 ng·h/mL
AUC(0-t) ([2]; 1 Portia tablet): 0.658 ng·h/mL
Effect of ritlecitinib 50 mg QD on PK of OC steroid (in words) [2]: did not produce a clinically meaningful change
Effect of ritlecitinib 50 mg QD on PK of OC steroid (in words) ([2]; listed as ethinyl oestradiol): no relevant change
AUC(0-inf) [3, 14]: 0.8 ng·h/mL
AUC(0-inf) [3, 15]: 0.656 ng·h/mL
Cmax [3, 15]: 0.0606 ng/mL
Decrease of AUCinf following coadministration of ritlecitinib [3, 16]: ≈ 18%
Decrease of Cmax following coadministration of ritlecitinib [3, 16]: ≈ 12%
Effect of ritlecitinib 200 mg QD on PK of OC steroid (in words) ([3]; ritlecitinib 200 mg QD): decreased

O=C1Nc2ccc(Cl)cc2[C@@](C#CC2CC2)(C(F)(F)F)O1 [Efavirenz, efavirenz]
AUC0–72, ratio (test/reference) of adjusted geometric means (90% CI) (CYP2B6; [17]): 99.7 (95.2–104.4) %
AUClast, ratio (test/reference) of adjusted geometric means (90% CI) (CYP2B6; [17]): 99.7 (95.3–104.4) %
Cmax, ratio (test/reference) of adjusted geometric means (90% CI) (CYP2B6; [17]): 88.2 (77.1–101.0) %
AUC0–72, ratio (test/reference) of adjusted geometric means (90% CI) (CYP2B6; [18]): 99.7%
Cmax, ratio (test/reference) of adjusted geometric means (90% CI) (CYP2B6; [18]): 88.2%
Effect of ritlecitinib on efavirenz AUC0–72 and Cmax (in words) (CYP2B6): similar
Effect of ritlecitinib on efavirenz AUC0–72 and Cmax (in words) (CYP2B6; listed as efavirenz): did not produce clinically meaningful changes

C#C[C@]1(O)CC[C@H]2[C@@H]3CCC4=CC(=O)CC[C@@H]4[C@H]3CC[C@@]21CC [LN, levonorgestrel]
AUC(0-t) ([2]; 50 mg): 29.6 ng·h/mL
Cmax ([2]; 50 mg): 2.32 ng/mL
AUC(0-t) ([2]; 1 Portia tablet): 33.7 ng·h/mL
AUC(0-t) [3, 14]: 23.8 ng·h/mL
AUC(0-t) [3, 15]: 26.8 ng·h/mL
Cmax [3, 14]: 2.94 ng/mL
Cmax [3, 15]: 3.03 ng/mL

Cc1ncc2n1-c1ccc(Cl)cc1C(c1ccccc1F)=NC2 [Midazolam, midazolam]
AUCinf, ratio (test/reference) of adjusted geometric means (90% CI) (CYP3A [4]; [19]): 269.4 (216.1–335.9) %
AUClast, ratio (test/reference) of adjusted geometric means (90% CI) (CYP3A [4]; [19]): 269.3 (215.8–336.1) %
Cmax, ratio (test/reference) of adjusted geometric means (90% CI) (CYP3A [4]; [19]): 180.8 (148.1–220.6) %
AUCinf, ratio (test/reference) of adjusted geometric means (90% CI) (CYP3A [4]; [20]): 269.4%
Cmax, ratio (test/reference) of adjusted geometric means (90% CI) (CYP3A [4]; [20]): 180.8%
Fold increase of midazolam AUCinf in the presence of ritlecitinib (CYP3A [4]; ritlecitinib 200 mg QD): 2.7 fold
Fold increase of midazolam Cmax in the presence of ritlecitinib (CYP3A [4]; ritlecitinib 200 mg QD): 1.8 fold
Increase of midazolam AUCinf in the presence of ritlecitinib (CYP3A [4]; ritlecitinib 200 mg QD): ≈ 169%
Fold increase of midazolam AUCinf in the presence of ritlecitinib (CYP3A [4]; ritlecitinib 200 mg QD, listed as midazolam): ≈ 2.7 fold

C=CC(=O)N1C[C@H](Nc2ncnc3[nH]ccc23)CC[C@@H]1C [Ritlecitinib, ritlecitinib]
Classification as clinical CYP3A inhibitor (CYP3A [4]; from midazolam DDI at ritlecitinib 200 mg QD): moderate inhibitor
Contribution of any single pathway to metabolism [5]: ≤ 25%
Predicted collective contribution of CYPs to metabolic disposition [5]: ≈ 47%
Predicted contribution of glutathione conjugation to metabolic disposition [5]: ≈ 24%
Half-life (t½) of ritlecitinib ([6]; quoted for the study design, ref previous studies): < 2 h
Dose proportionality of exposure (in words) ([6]; up to 200 mg): approximately dose‐proportionally
Time-dependent inhibition of CYP3A in vitro (in words) (CYP3A4/5): time dependent inhibitor
Classification as clinical CYP1A2 inhibitor (CYP1A2 [7]): moderate inhibitor
AUC(0-inf) (CYP3A [8]; human, plasma, oral, 30 mg): 268 ng·h/mL
AUC(0-t) (CYP3A [8]; human, plasma, oral, 30 mg): 264 ng·h/mL
Cmax (CYP3A [8]; human, plasma, oral, 30 mg): 153 ng/mL
Effect of itraconazole on ritlecitinib Cmax (in words) (CYP3A [8]; [21]): similar
Increase of ritlecitinib AUCinf with itraconazole (CYP3A [8]; [21]): ≈ 15%
AUCinf, ratio (test/reference) of adjusted geometric means (90% CI) (CYP3A [8]; [22]): 115.1 (104.6–126.7) %
AUClast, ratio (test/reference) of adjusted geometric means (90% CI) (CYP3A [8]; [22]): 115.1 (104.4–126.7) %
Cmax, ratio (test/reference) of adjusted geometric means (90% CI) (CYP3A [8]; [22]): 102.5 (82.8–127.0) %
Time-dependent inhibition of CYP1A2 in vitro (in words) (CYP1A2 [9]): time dependent inhibitor
Inhibition of OCT1 (in words) [10]: inhibitor
Decrease of ritlecitinib AUCinf with rifampicin (CYP; multiple rifampicin doses, ritlecitinib 50 mg): ≈ 45%
AUCinf, ratio (test/reference) of adjusted geometric means (90% CI) (CYP; [23]): 55.8 (51.9–59.9) %
AUClast, ratio (test/reference) of adjusted geometric means (90% CI) (CYP; [23]): 55.7 (51.9–59.7) %
Cmax, ratio (test/reference) of adjusted geometric means (90% CI) (CYP; [23]): 75.1 (63.3–89.1) %
AUCinf, ratio (test/reference) of adjusted geometric means (90% CI) (CYP; [24]): 55.8%
Cmax, ratio (test/reference) of adjusted geometric means (90% CI) (CYP; [24]): 75.1%
Clinical relevance of exposure change with rifampicin (in words) (CYP; typical exposure range 0.5- to 2-fold of mean exposure): not decreased to clinically relevant levels
